# System: All receptor (pressor response to angiotensin II)
# Assay: Evaluation of AII receptor blocking activity by inhibition of pressor response to angiotensin II
# Format: in vivo
# Conditions: dose inhibiting pressor response to intravenous angiotensin II (50 ng/kg) by fifty percent; anesthetized male Wister-Imamichi rats; test compound i.v., angiotensin II injected two minutes later; 2 min
# Protocol: Evaluation of All receptor blocking activity by Inhibition of pressor response to angiotensin II
# The biological activity of each compound was assessed by determining the dose required to inhibit the pressor response to intravenous angiotensin II by fifty percent (ID50) in rats. Male Wister-Imamichi rats, each weighing 300 to 400 g, were anesthesized by intraperitoneal injection of 100 mg/Kg of sodium thiobutabarbital [Inactin (trade name)] and two cannulae were inserted: one into the femoral artery for measuring blood pressure and the other into the femoral vein for injecting drugs. Fifty ng/kg of angiotension II were intravenously administered at intervals of about 10 minutes, and the elevation of blood pressure (normally about 50 mmHg) was observed. After constant pressor responses to angiotensin II were obtained, a test compound was intravenously administered. Two minutes later, angiotension II was again injected, and the inhibitory effect of the test compound was estimated. The percent inhibitions of the pressor response to angiotensin II by progressive increase of the test compound was used to calculate the value of ID50. Angiotensin II was used in this test dissolved in 0.5 % bovine serum albumin (BSA) and the test compounds were dissolved in 100% dimethyl sulphoxide (DMSO).
# In addition to the compounds of the invention (which are identified hereafter by the number of the one of the following Examples which illustrates their preparation), we also carried out the same experiment using a prior art compound (identified in the Table as "compound A"), which is 2-[4-(2-butyl-5-chloro-4-chloromethylimidazoll-ylmethyl)phenyl]benzoic acid, which is disclosed in Example 118 of European Patent Publication No. 253 310.
row,SMILES,ID50
1,"CCCCc1nc(C(C)O)c(C(=O)O)n1Cc1ccc(-c2ccccc2C(=O)O)cc1 (stereo not shown) [Example 11, 2-Butyl-1-[(2'-carboxybiphenyl-4-yl)methyl]-4-(1-hydroxyethyl) imidazole-5-carboxylic acid]","0.25 mg/kg, i.v."
2,"CCCCc1nc(C(O)C(C)(C)C)c(C(N)=O)n1Cc1ccc(-c2ccccc2-c2nnn[nH]2)cc1 (stereo not shown) [Example 75, 2-Butyl-4-(1-hydroxy-2,2-dimethylpropyl)-1-{4-[2-(tetrazol-5-yl)phenyl]phenyl}methylimidazole-5-carboxamide]","0.11 mg/kg, i.v."
3,"CCCCc1nc(CO)c(C(=O)NCC(=O)O)n1Cc1ccc(-c2ccccc2C(=O)O)cc1 [Example 55, N-Carboxymethyl-2-butyl-1-[(2'-carboxybiphenyl-4-yl)-methyl]-4-hydroxymethylimidazole-5-carboxamide]","0.23 mg/kg, i.v."
4,"CCCc1nc(C(O)C(C)(C)C)c(C(N)=O)n1Cc1ccc(-c2ccccc2C(=O)O)cc1 (stereo not shown) [Example 60, 1-[(2'-Carboxybiphenyl-4-yl)methyl]-4-(1-hydroxy-2,2-dimethylpropyl)-2-propylimidazole-5-carboxamide]","0.134 mg/kg, i.v."
5,"CCCCc1nc(C(O)CC)c(C(N)=O)n1Cc1ccc(-c2ccccc2C(=O)O)cc1 (stereo not shown) [Example 46, 2 -Butyl-1-[(2'-carboxybiphenyl-4-yl)methyl]-4-(1-hydroxypropyl)imidazole-5-carboxamide]","0.18 mg/kg, i.v."
6,"CCCCc1nc(CO)c(C(=O)O)n1Cc1ccc(-c2ccccc2-c2nnn[nH]2)cc1 [Example 39, 2-Butyl-4-hydroxymethyl-1-{4-[2-(tetrazol-5-yl)-phenyl]phenyl}methylimidazole-5-carboxylic acid]","0.010 mg/kg, i.v."
7,"CCCc1nc(C(O)C(C)(C)C)c(C(N)=O)n1Cc1ccc(-c2ccccc2-c2nnn[nH]2)cc1 (stereo not shown) [Example 74, 4-(1-Hydroxy-2,2-dimethylpropyl)-2-propyl-1-{4-[2-(tetrazol-5-yl)phenyl]phenyl}methylimidazole-5-carboxamide]","0.036 mg/kg, i.v."
8,"CCCCc1nc(C(C)O)c(C(N)=O)n1Cc1ccc(-c2ccccc2C(=O)O)cc1 (stereo not shown) [Example 45, 2-Butyl-1-[(2'-carboxybiphenyl-4-yl)methyl]-4-(1-hydroxyethyl) imidazol-5-carboxamide]","0.19 mg/kg, i.v."
9,"CCCc1nc(C(C)O)c(C(=O)O)n1Cc1ccc(-c2ccccc2-c2nnn[nH]2)cc1 (stereo not shown) [Example 41, 4-(1-Hydroxyethyl)-2-propyl-1-{4-[2-(tetrazol-5-yl)phenyl]phenyl}methylimidazole-5-carboxylic acid]","0.0063 mg/kg, i.v."
10,"CCCCc1nc(C(C)O)c(C(=O)O)n1Cc1ccc(-c2ccccc2-c2nnn[nH]2)cc1 (stereo not shown) [Example 44, 2-Butyl-4-(1-hydroxyethyl)-1-{4-[2-(tetrazol-5-yl)phenyl]phenyl}methylimidazole-5-carboxylic acid]","0.0082 mg/kg, i.v."
11,"CCCc1nc(CO)c(C(=O)O)n1Cc1ccc(-c2ccccc2-c2nnn[nH]2)cc1 [Example 36, 4-Hydroxymethyl-2-propyl-1-{4-[2-(tetrazol-5-yl)phenyl]phenyl}methylimidazole-5-carboxylic acid]","0.0062 mg/kg, i.v."
12,"CCCc1nc(C(O)C(C)C)c(C(N)=O)n1Cc1ccc(-c2ccccc2-c2nnn[nH]2)cc1 (stereo not shown) [Example 76, 4-(1-Hydroxy-2-methylpropyl)-2-propyl-1-{4-[2-(tetrazol-5-yl)phenyl]phenyl}methylimidazole-5-carboxamide]","0.022 mg/kg, i.v."
13,"CCCCc1nc(C(O)C(C)C)c(C(N)=O)n1Cc1ccc(-c2ccccc2C(=O)O)cc1 (stereo not shown) [Example 48, 2-Butyl-1-[(2'-carboxybiphenyl-4-yl)methyl]-4-(1-hydroxy-2-methylpropyl)imidazole-5-carboxamide]","0.064 mg/kg, i.v."
14,"CCCCc1nc(CCl)c(Cl)n1Cc1ccc(-c2ccccc2C(=O)O)cc1 [compound A, 2-[4-(2-butyl-5-chloro-4-chloromethylimidazoll-ylmethyl)phenyl]benzoic acid, reference compound]","3.3 mg/kg, i.v."
15,"CCCCc1nc(C(O)C(C)(C)C)c(C(N)=O)n1Cc1ccc(-c2ccccc2C(=O)O)cc1 (stereo not shown) [Example 59, 2-Butyl-1-[(2'-carboxybiphenyl-4-yl)methyl]-4-(1-hydroxy-2,2-dimethylpropyl)imidazole-5-carboxamide]","0.066 mg/kg, i.v."
16,"CCCCc1nc(CO)c(C(=O)O)n1Cc1ccc(-c2ccccc2C(=O)O)cc1 [Example 5, 2-Butyl-1-[(2'-carboxybiphenyl-4-yl)methyl]-4-hydroxymethylimidazole-5-carboxylic acid]","0.22 mg/kg, i.v."

# Source: patent publication EP0545912B1, “1-Biphenylmethylimidazole derivatives, their preparation and their therapeutic use” (Sankyo Company Limited, priority 1991, dated 1992)
